Laboratory results as given in the OPERA property sets (Mansouri et al. 2018).
In brackets after ≈: the same amount, converted by molar mass.

Details: not given

SMILES	logP
BrC(Br)Br	2.4
Nc1ccc(Cc2ccc(N)c(Cl)c2)cc1Cl	3.91
CC(C)(OOC(C)(C)c1ccccc1)c1ccccc1	5.5
Cc1ccc(Cl)c(O)c1	2.9

Same assay, conditions: 20 °C

SMILES	solubility [µM]
COC(C)CCOC(C)=O (configuration not stated)	31500 (≈ 4600 µg/mL)

Same assay, conditions: 25 °C

SMILES	solubility [µM]
Nc1cccc2cccc(N)c12	5370 (≈ 850 µg/mL)
N#Cc1ccccc1C#N	3080 (≈ 395 µg/mL)
Oc1c(Cl)cccc1Cl	11700 (≈ 1900 µg/mL)
CC(C)=CCC/C(C)=C/CO	1490 (≈ 230 µg/mL)
Cc1ccc(O)c([N+](=O)[O-])c1	4130 (≈ 633 µg/mL)
c1ccc(Nc2cccc3ccccc23)cc1	274 (≈ 60 µg/mL)
O=[N+]([O-])c1c(Cl)cc(Cl)cc1Cl	27.6 (≈ 6.25 µg/mL)
CCC(C)c1cccc(C(C)CC)c1O (configuration not stated)	8.72 (≈ 1.8 µg/mL)
Oc1ccc(Cc2ccccc2)cc1	397 (≈ 73.2 µg/mL)
C=CC(=C)CCC=C(C)C	41.1 (≈ 5.6 µg/mL)
CC=C1CC2C=CC1C2 (configuration not stated)	74 (≈ 8.9 µg/mL)
C=CC(OC(C)=O)OC(C)=O	56900 (≈ 9000 µg/mL)
c1ccc2sc(SSc3nc4ccccc4s3)nc2c1	30.1 (≈ 10 µg/mL)
C=CCc1ccc(OC)c(OC)c1	2810 (≈ 500 µg/mL)
COc1ccc(N)c([N+](=O)[O-])c1	714 (≈ 120 µg/mL)
COc1cccc2ccccc12	63.2 (≈ 10 µg/mL)
CCCCCC(=O)CCCCC	294 (≈ 50 µg/mL)
C=C1C2CCC(C2)C1(C)C (configuration not stated)	33.8 (≈ 4.6 µg/mL)
CC(=O)N(C)c1ccccc1	112000 (≈ 16700 µg/mL)
CC(=O)Nc1ccccc1O	5820 (≈ 880 µg/mL)
Cc1ccc([N+](=O)[O-])cc1O	6530 (≈ 1000 µg/mL)
ClC1CCCCC1	4220 (≈ 500 µg/mL)
ClCC(Cl)(Cl)CCl	2640 (≈ 480 µg/mL)
O=C(O)c1ccccc1-c1ccccc1C(=O)O	5200 (≈ 1260 µg/mL)

SMILES	solubility [µM]
COc1cccc([N+](=O)[O-])c1	3270 (≈ 500 µg/mL)
CC(C)CN1CCOCC1	195000 (≈ 28000 µg/mL)
O=CC(Cl)(Cl)Cl	204000 (≈ 30000 µg/mL)
OCc1ccc(Cl)c(Cl)c1	9040 (≈ 1600 µg/mL)
ClC(Cl)C(Cl)C(Cl)Cl	1900 (≈ 410 µg/mL)
OC(c1ccccc1)c1ccc(Cl)cc1 (configuration not stated)	325 (≈ 71 µg/mL)
Oc1cc(Cl)ccc1Cl	12300 (≈ 2000 µg/mL)
Nc1ccc(Cl)cc1Cl	3830 (≈ 620 µg/mL)
Oc1cccc(Br)c1	133000 (≈ 23000 µg/mL)
COc1ccc(O)cc1	322000 (≈ 40000 µg/mL)
C=C(C)CCl	15500 (≈ 1400 µg/mL)
CCCCCCCCN(CCCCCCCC)CCCCCCCC	0.141 (≈ 0.05 µg/mL)
O=C(O)c1ccc2ccccc2c1	273 (≈ 47 µg/mL)
O=C(OOC(=O)c1ccccc1)c1ccccc1	37.6 (≈ 9.1 µg/mL)
CC(C)(C)c1ccc(O)c(C(C)(C)C)c1	170 (≈ 35 µg/mL)
Cc1ccsc1	4070 (≈ 400 µg/mL)
O=C(O)C1C(C(=O)O)C2(Cl)C(Cl)=C(Cl)C1(Cl)C2(Cl)Cl (configuration not stated)	9000 (≈ 3500 µg/mL)
N=C(Nc1ccccc1)Nc1ccccc1	4730 (≈ 1000 µg/mL)
OCc1c(Cl)cccc1Cl	7910 (≈ 1400 µg/mL)
Cc1cc(Cc2cc(C)cc(C(C)(C)C)c2O)c(O)c(C(C)(C)C)c1	0.0587 (≈ 0.02 µg/mL)
O=[N+]([O-])c1ccc(Cl)cc1C(F)(F)F	443 (≈ 100 µg/mL)
CCCC=C(C=O)CC	4640 (≈ 586 µg/mL)
CCc1ccccc1[N+](=O)[O-]	1590 (≈ 240 µg/mL)
OCC(CO)(CBr)CBr	145000 (≈ 38000 µg/mL)

SMILES	solubility [µM]
CCCCOCCOCCOC(C)=O	220000 (≈ 44900 µg/mL)
CCc1cccc(CC)c1	179 (≈ 24 µg/mL)
CNc1cccc(C)c1	8910 (≈ 1080 µg/mL)
Cc1cc(C)c(O)c(C)c1	8810 (≈ 1200 µg/mL)
O=C1CCCCCCCCCCCN1	1470 (≈ 290 µg/mL)
CC(C)=CC=C(C)C	290 (≈ 32 µg/mL)
Oc1cccc(Cl)c1Cl	22100 (≈ 3600 µg/mL)
CC(C)(C)c1cc(C(C)(C)C)c(O)c(C(C)(C)C)c1	133 (≈ 35 µg/mL)
Oc1c(Cl)cc(Cl)c(Cl)c1Cl	99.2 (≈ 23 µg/mL)
CCCCNCCCC	36400 (≈ 4700 µg/mL)
CN(C)Cc1ccccc1	88800 (≈ 12000 µg/mL)
CC(C)CNCC(C)C	17000 (≈ 2200 µg/mL)
COC(=O)c1ccccc1C(=O)c1ccccc1	333 (≈ 80 µg/mL)
C=C(C)C(=O)OCCO	768000 (≈ 100000 µg/mL)
O=[N+]([O-])c1cc(Cl)cc(Cl)c1O	81.7 (≈ 17 µg/mL)
CC(CCl)OP(=O)(OC(C)CCl)OC(C)CCl (configuration not stated)	3660 (≈ 1200 µg/mL)
CNC(=O)Oc1ccccc1C(C)C	2070 (≈ 400 µg/mL)
CCNc1cccc2ccccc12	642 (≈ 110 µg/mL)
Clc1ccccn1	176000 (≈ 20000 µg/mL)
N#CCc1ccccc1	854 (≈ 100 µg/mL)
CC(C)(OOC(C)(C)c1ccccc1)c1ccccc1	1.7 (≈ 0.46 µg/mL)
CCCCCCCCC#N	503 (≈ 70 µg/mL)
Nc1cccc2c(N)cccc12	2400 (≈ 380 µg/mL)
Nc1c(Cl)cc(Cl)cc1Cl	204 (≈ 40 µg/mL)
